Test results published in PubChem BioAssay (NCI).
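Results reflect a 48-hour exposure of cells in 96-well plates to compound at five concentrations. TGI denotes the concentration required for complete inhibition of growth.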

Tests used:
Assay in all cases: growth of human tumour cells (NCI), 48 h
SF-539 CNS = system: SF-539 CNS
RPMI-8226 leukemia = system: RPMI-8226 leukemia
RXF-631 renal = system: RXF-631 renal
A549 NSCLC = system: A549 NSCLC
DMS 114 small cell lung = system: DMS 114 small cell lung
SK-MEL-5 melanoma = system: SK-MEL-5 melanoma
A498 renal = system: A498 renal
UACC-257 melanoma = system: UACC-257 melanoma
SNB-75 CNS = system: SNB-75 CNS
NCI-H522 lung = system: NCI-H522 lung
LOX IMVI melanoma = system: LOX IMVI melanoma
NCI-H226 lung = system: NCI-H226 lung
MALME-3M melanoma = system: MALME-3M melanoma
TK-10 renal = system: TK-10 renal
HOP-62 NSCLC = system: HOP-62 NSCLC
HL-60(TB) leukemia = system: HL-60(TB) leukemia
HT29 colon = system: HT29 colon
IGROV1 ovarian = system: IGROV1 ovarian
DMS 273 small cell lung = system: DMS 273 small cell lung
SK-MEL-28 melanoma = system: SK-MEL-28 melanoma
RXF 393 renal = system: RXF 393 renal
K-562 leukemia = system: K-562 leukemia
HCT-15 colon = system: HCT-15 colon
SW-620 colon = system: SW-620 colon
EKVX NSCLC = system: EKVX NSCLC
OVCAR-8 ovarian = system: OVCAR-8 ovarian
LXFL 529 NSCLC = system: LXFL 529 NSCLC
KM20L2 colon = system: KM20L2 colon
CCRF-CEM leukemia = system: CCRF-CEM leukemia
DLD-1 colon = system: DLD-1 colon
CAKI-1 renal = system: CAKI-1 renal
SF-268 CNS = system: SF-268 CNS
SNB-78 CNS = system: SNB-78 CNS
UO-31 renal = system: UO-31 renal
786-0 renal = system: 786-0 renal
SR leukemia = system: SR leukemia
SNB-19 CNS = system: SNB-19 CNS
SK-OV-3 ovarian = system: SK-OV-3 ovarian
M19-MEL melanoma = system: M19-MEL melanoma
KM12 colon = system: KM12 colon
ACHN renal = system: ACHN renal
HCC-2998 colon = system: HCC-2998 colon
SN12C renal = system: SN12C renal
M14 melanoma = system: M14 melanoma
XF 498 CNS = system: XF 498 CNS
OVCAR-5 ovarian = system: OVCAR-5 ovarian
HOP-18 NSCLC = system: HOP-18 NSCLC
OVCAR-3 ovarian = system: OVCAR-3 ovarian
SK-MEL-2 melanoma = system: SK-MEL-2 melanoma
MOLT-4 leukemia = system: MOLT-4 leukemia
SF-295 CNS = system: SF-295 CNS
UACC-62 melanoma = system: UACC-62 melanoma
NCI-H460 lung = system: NCI-H460 lung
NCI-H23 lung = system: NCI-H23 lung
OVCAR-4 ovarian = system: OVCAR-4 ovarian
HCT-116 colon = system: HCT-116 colon
U251 CNS = system: U251 CNS
COLO 205 colon = system: COLO 205 colon

Measured: TGI

Cc1nnc(N=Nc2c(O)[nH]c3ccccc23)n1N
> 100 µM: all assays above

CC1(C)OC(COCCOCCCCCO)C(COCCOCCCCCO)O1 (configuration not stated)
not listed: SF-539 CNS | HL-60(TB) leukemia | CCRF-CEM leukemia | XF 498 CNS
> 100 µM: all other assays above
